“Also recorded” adds a separate entry of the source. Like-named read-outs stand apart in the source and are kept apart here.
Columns and labels:
RT-SHIV [1] = experiment: 90% inhibitory quotient; design: IQ90 in NHP brain tissue, one individual animal: unit not given beside the values; details: for IQ90 in NHP brain tissue, one individual animal: the single animal above 1
[2] = ARV concentrations in brain tissue and plasma by LC-MS/MS, BLT mice; details: BLT vs hu-HSC-RAG
[3] = in vivo; cited from earlier work
[4] = cited from earlier work
[5] = no reference given; cited from earlier work
HIV = details: target value used for colocalization; cited from earlier work
[6] = ARV concentrations in brain tissue, CSF and plasma by LC-MS/MS, NHPs
RT-SHIV [7] = experiment: IC90 against the RT-SHIV strain of virus; type: cell-based
[8] = in vivo; cited from earlier work; remark: listed apart in the source
in vitro = in vitro ADME, rhesus macaques; details: rhesus macaque, frontal cortex brain tissue homogenate
[9] = in vivo
[10] = ARV concentrations in brain tissue and plasma by LC-MS/MS, hu-HSC-RAG mice; details: p=0.29

Cc1nnc(C(=O)NC(C)(C)c2nc(C(=O)NCc3ccc(F)cc3)c(O)c(=O)n2C)o1 [RAL, raltegravir]
Kp at 1 day after the last of ten days of dosing (both, hu-HSC-Rag and BLT (mice), mouse (humanized) and rhesus macaque, in vivo): 0.11 to 0.12 | IQ90 from total brain tissue concentrations (RT-SHIV [1]; six of the remaining seven animals): < 1 | IQ90 from unbound brain tissue concentration (RT-SHIV [1]; the one animal where unbound concentration could be measured): 0.07 | IQ90 in NHP brain tissue, one individual animal (RT-SHIV [1]): 1.1

C[C@H](Cn1cnc2c(N)ncnc21)OCP(=O)(O)O [TFV, tenofovir]
fold higher brain tissue penetration in BLT mice compared to hu-HSC-RAG mice [2]: 3 fold | median brain tissue concentration, human post-mortem [3]: 80 ng/g | protein binding in plasma ([4]; no reference given): < 10%

O=C1Nc2ccc(Cl)cc2[C@@](C#CC2CC2)(C(F)(F)F)O1 [EFV, efavirenz]
BCS class [5]: class I or class II | IC50 target (HIV): 2 ng/g | median brain tissue concentration, human post-mortem [3]: 900 ng/g | total brain tissue concentration, median [range] ([6]; NHP, LC-MS/MS, four brain regions combined): 775 ng/g | blood plasma protein binding ([4]; ref Boffito et al. 2003): 99.5%

maraviroc [MVC]
fold higher IC90 against RT-SHIV than against clinical HIV-1 isolates (RT-SHIV [7]): 100 fold

COC(=O)N[C@H](C(=O)N[C@@H](Cc1ccccc1)[C@@H](O)CN(Cc1ccc(-c2ccccn2)cc1)NC(=O)[C@@H](NC(=O)OC)C(C)(C)C)C(C)(C)C [ATZ, atazanavir]
BCS class [5]: class I or class II | CSF concentrations [8]: 5 to 21 ng/mL | fold higher IC90 against RT-SHIV than against clinical HIV-1 isolates (RT-SHIV [7]): 1,000 fold | fraction unbound at 18 h (in vitro): 0.76

CC(Cn1cnc2c(N)ncnc21)OCP(=O)(O)OP(=O)(O)OP(=O)(O)O (stereo in doubt) [TFV-dp, tenofovir diphosphate]
IQ90 in NHP brain tissue, one individual animal (RT-SHIV [1]): 1.1 | TFV-dp concentration range in all brain tissue samples [9]: 851 to 179,000 fmol/g of tissue | fold higher median TFV-dp brain concentration in hu-HSC-RAG vs BLT mice [10]: 10 fold

Nc1nc(=O)n([C@@H]2CS[C@H](CO)O2)cc1F [FTC, emtricitabine]
fold higher brain tissue penetration in BLT mice compared to hu-HSC-RAG mice [2]: 5 fold | fold lower CSF concentration in NHPs than human concentrations ([6]; compared with ref Calcagno (2014)): approximately 3 fold | protein binding in plasma ([4]; plasma): < 10%

Nc1nc(=O)n([C@@H]2CS[C@H](COP(=O)(O)OP(=O)(O)OP(=O)(O)O)O2)cc1F [FTC-tp, emtricitabine triphosphate]
FTC-tp in brain tissue (all three animal models): not detected; also recorded: not quantifiable
